For 38 compounds, EC50 results are on record in patent publication US7582803B2 (Amgen Inc., priority 2005, dated 2009).

A value given as a limit tells only on which side of the number the result lay.

T1 sequence (O14842 whole entry): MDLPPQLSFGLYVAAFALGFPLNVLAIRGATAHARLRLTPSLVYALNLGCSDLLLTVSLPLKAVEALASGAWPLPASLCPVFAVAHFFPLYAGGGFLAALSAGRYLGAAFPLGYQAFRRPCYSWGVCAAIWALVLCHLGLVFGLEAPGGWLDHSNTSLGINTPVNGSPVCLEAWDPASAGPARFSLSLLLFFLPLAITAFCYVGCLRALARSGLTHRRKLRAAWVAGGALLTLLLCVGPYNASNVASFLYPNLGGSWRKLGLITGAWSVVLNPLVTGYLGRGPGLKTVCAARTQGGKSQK

This experiment concerns the target T1, human GPR40 (Homo sapiens, UniProt O14842).
T1 construct: expressed in transfected cells; host or cells: CHO cells
Description: Cell-based aequorin assay. As to conditions: CHO cells stably transfected with GPR40 and aequorin; 0.01% HSA; aequorin luminescence; read-out: Relative EC50. As to the method: Cell-based aequorin assays were employed to characterize the modulatory activity of compounds on the GPR40 signaling pathway. In an exemplary assay, CHO cells were stably transfected with both GPR40 and Aequorin (Euroscreen). Cells were detached from the tissue culture dish with 2 mL of trypsin (0.25% (w/v)). Trypsinization was halted with 28 mL of Hanks Buffered Salt Solution containing 20 mM Hepes (H/HBSS) and 0.01% fatty acid-free human serum albumin (HSA). Coelantrazine is added to 1 ug/mL, and the cells were incubated for 2 hours at room temperature. Compounds were dissolved in DMSO for preparation of 10 mM stock solutions. Compounds were diluted in H/HBSS containing 0.01% HSA. Serial dilutions of the test compounds were prepared to determine dose response.
Aequorin luminescence measurements were made using an EG&G Berthold 96-well luminometer, and the response was measured over a 20 second interval after cells and compounds were mixed. The maximum relative light units was plotted to determine dose response. The EC50 (effective concentration to reach 50% maximal response) was determined from the dose response plot.
Table 1 presents representative data (EC50 values) obtained for exemplary compounds of the invention for the relative activation of human GPR40. […]
As usually defined, the EC50 is the concentration needed to bring the measured effect to its halfway point. With `CC#C[C@@H](CC(=O)O)c1ccc(OC2c3ccccc3CC2C)cc1` (mixture of isomers) [Example 21, (3S)-3-[4-(2-Methyl-indan-1-yloxy)-phenyl]-hex-4-ynoic acid], the EC50 is 10 to 100 nM.

As for `Cc1ccc(C(CC(=O)O)c2ccc(OC3CCc4cc(Cl)ccc43)cc2)s1` (racemic) [Example 23, (+/−)-3-(4-(5-Chloro-2,3-dihydro-1H-inden-1-yloxy)phenyl)-3-(5-methylthiophen-2-yl)propanoic acid], the EC50 is 1000 to 10000 nM. For `O=C(O)CC(c1ccc(OC2CCC(c3ccccc3)CC2)cc1)c1cccs1` (racemic) [Example 31, (+/−)-3-(4-(4-Phenylcyclohexyloxy)phenyl)-3-(thiophen-2-yl)propanoic acid], the EC50 lay in the range of 1000 to 10000 nM. The same measure for `O=C(O)CC(c1ccc(OC2Cc3ccccc3C2)cc1)c1ncco1` (racemic) [Example 32, (+/−)-3-(4-(2,3-Dihydro-1H-inden-2-yloxy)phenyl)3-(oxazol-2-yl)propanoic acid]: 1000 to 10000 nM; for `O=C(O)CC(c1ccc(OC2CCc3cc(Cl)ccc32)cc1)c1ncco1` (racemic) [Example 33, (+/−)-3-(4-(5-Chloro-2,3-dihydro-1H-inden-1-yloxy)phenyl)-3-(oxazol-2-yl)propanoic acid]: 1000 to 10000 nM; for `Cc1cnc(C(CC(=O)O)c2ccc(OC3CCc4cc(Cl)ccc43)cc2)o1` (racemic) [Example 34, (+/−)-3-(4-(5-Chloro-2,3-dihydro-1H-inden-1-yloxy)phenyl)-3-(5-methyloxazol-2-yl)propanoic acid]: 1000 to 10000 nM. Regarding `O=C(O)CC(c1ccc(OC2Cc3ccccc3C2)cc1)c1cc(F)cc(F)c1` (racemic) [Example 36, (+/−)3-(3,5-Difluorophenyl)-3-(4-(2,3-dihydro-1H-inden-2-yloxy)phenyl)propanoic acid], the EC50 fell in the range of 100 to 1000 nM. Turning to `O=C(O)CC(c1ccc(OC2Cc3ccccc3C2)cc1)c1cc(F)ccc1F` (racemic) [Example 37, (+/−)3-(2,5-Difluorophenyl)-3-(4-(2,3-dihydro-1H-inden-2-yloxy)phenyl)propanoic acid], the EC50 was in the range of 100 to 1000 nM.

With `O=C(O)CC(c1ccc(OC2Cc3ccccc3C2)cc1)c1ccc(F)cc1F` (racemic) [Example 38, (+/−)3-(2,4-Difluorophenyl)-3-(4-(2,3-dihydro-1H-inden-2-yloxy)phenyl)propanoic acid], the EC50 lay within 100 to 1000 nM.

In the case of `O=C(O)CC(c1ccc(OC2Cc3ccccc3C2)cc1)c1c(F)cccc1F` (racemic) [Example 39, (+/−)3-(2,6-Difluorophenyl)-3-(4-(2,3-dihydro-1H-inden-2-yloxy)phenyl)propanoic acid], the EC50 lay in the range of 1000 to 10000 nM. Then `O=C(O)CC(c1ccccc1)c1ccc(OC2CCc3cc(Br)ccc32)cc1` (racemic) [Example 41, (+/−)-3-[4-(5-Bromo-indan-1-yloxy)-phenyl]-3-phenyl-propionic acid], with 100 to 1000 nM; and `O=C(O)CC(c1ccc(F)cc1)c1ccc(OC2CCc3cc(Br)ccc32)cc1` (racemic) [Example 42, (+/−)-3-[4-(5-Bromo-indan-1-yloxy)-phenyl]-3-(4-fluoro-phenyl)-propionic acid], with 100 to 1000 nM; and `O=C(O)CC(c1ccc(OC2Cc3ccccc3C2)cc1)c1cccs1` (racemic) [Example 48, (+/−)-3-(4-(2,3-Dihydro-1H-inden-2-yloxy)phenyl)-3-(thiophen-2-yl)propanoic acid], with 100 to 1000 nM. As for `O=C(O)CC(c1ccc(OC2CCCCc3ccccc32)cc1)c1cccs1` (racemic) [Example 49, (+/−)3-(4-(6,7,8,9-Tetrahydro-5H-benzo[7]annulen-5-yloxy)phenyl)-3-(thiophen-2-yl)propanoic acid], the EC50 lay within 1000 to 10000 nM. The same measure for `O=C(O)CC1CCCc2cc(OC3Cc4ccccc4C3)ccc21` (racemic) [Example 53, (R/S)-2-(6-(2,3-Dihydro-1H-inden-2-yloxy)-1,2,3,4-tetrahydronaphthalen-1-yl)acetic acid]: 100 to 1000 nM; for `CC1(C)CCC(C)(C)c2cc(COc3ccc(C(CC(=O)O)c4cncnc4)cc3)ccc21` (racemic) [Example 79, (R/S)-3-Pyrimidin-5-yl-3-[4-(5,5,8,8-tetramethyl-5,6,7,8-tetrahydro-naphthalen-2-ylmethoxy)-phenyl]-propionic acid]: 1000 to 10000 nM. The same measure for `CC#C[C@@H](CC(=O)O)c1ccc(O[C@@H]2CCc3cc(Br)ccc32)cc1` (single isomer, unassigned) [Example 44]: 10 to 100 nM; for `CC#C[C@@H](CC(=O)O)c1ccc(OC2CCc3cc(-c4ccc(C(F)(F)F)cc4)ccc32)cc1` (some centres unmarked) [Example 1]: 10 to 100 nM; for `CC#C[C@@H](CC(=O)O)c1ccc(OC2CCc3cc(Br)ccc32)cc1` (stereo partly drawn) [Example 2, (3S)-3-[4-(5-Bromo-indan-1-yloxy)-phenyl]-hex-4-ynoic acid]: 10 to 100 nM.

As to `CC#C[C@@H](CC(=O)O)c1ccc(OC2CCc3cc(-c4cc(C)ccc4OCCCC)ccc32)cc1` (stereo partly drawn) [Example 3, (3S)-3-(4-(5-(2-Butoxy-5-methylphenyl)-2,3-dihydro-1H-inden-1-yloxy)phenyl)hex-4-ynoic acid], the EC50 is 10 to 100 nM.

Take `CC#C[C@@H](CC(=O)O)c1ccc(OC2CCc3c(Br)cccc32)cc1` (stereo partly drawn) [Example 5, (3S)-3-[4-(4-Bromo-indan-1-yloxy)-phenyl]-hex-4-ynoic acid]: the EC50 fell in the range of 10 to 100 nM. The same measure for `CC#C[C@@H](CC(=O)O)c1ccc(OC2CCc3c(-c4ccc(OC(F)(F)F)cc4)cccc32)cc1` (stereo partly drawn) [Example 6, (3S)-3-{4-[4-(4-Trifluoromethoxy-phenyl)-indan-1-yloxy]-phenyl}-hex-4-ynoic acid]: 10 to 100 nM; for `CC#C[C@@H](CC(=O)O)c1ccc(OC2CCc3c(-c4ccc(C(F)(F)F)cc4)cccc32)cc1` (some centres unmarked) [Example 7]: 10 to 100 nM; for `CC#C[C@@H](CC(=O)O)c1ccc(OC2CCc3c(-c4cc(C)ccc4OCCCC)cccc32)cc1` (stereo partly drawn) [Example 8, (3S)-3-{4-[4-(2-Butoxy-5-methyl-phenyl)-indan-1-yloxy]-phenyl}-hex-4-ynoic acid]: 10 to 100 nM. Turning to `CC#C[C@@H](CC(=O)O)c1ccc(OC2CCc3ccc(-c4ccc(C(F)(F)F)cc4)cc32)cc1` (stereo partly drawn) [Example 11, (3S)-3-(4-(6-(4-(trifluoromethyl)phenyl)-2,3-dihydro-1H-inden-1-yloxy)phenyl)hex-4-ynoic acid], the EC50 fell in the range of 10 to 100 nM. `CC#C[C@@H](CC(=O)O)c1ccc(OC2CCc3ccc(-c4cc(C)ccc4OCCCC)cc32)cc1` (stereo partly drawn) [Example 12, (3S)-3-{4-[6-(2-Butoxy-5-methyl-phenyl)-indan-1-yloxy]-phenyl}-hex-4-ynoic acid]: the EC50 was 10 to 100 nM.

`CC#C[C@@H](CC(=O)O)c1ccc(OC2CCc3cc(F)ccc32)cc1` (stereo partly drawn) [Example 14, (3S)-3-(4-(5-Fluoro-2,3-dihydro-1H-inden-1-yloxy)phenyl)hex-4-ynoic acid]: the 50% effective concentration (EC50) lay in the range of 10 to 100 nM. Turning to `CC#C[C@@H](CC(=O)O)c1ccc(OC2CCc3cc(Cl)ccc32)cc1` (stereo partly drawn) [Example 15, (3S)-3-[4-(5-Chloro-indan-1-yloxy)-phenyl]-hex-4-ynoic acid], the EC50 was < 10 nM. Turning to `CC#C[C@@H](CC(=O)O)c1ccc(OC2CCc3c(C)cccc32)cc1` (stereo partly drawn) [Example 16, (3S) 3-[4-(4-Methyl-indan-1-yloxy)-phenyl]-hex-4-ynoic acid], the concentration giving a half-maximal response (EC50) was in the range of 10 to 100 nM.

In the case of `CC#C[C@@H](CC(=O)O)c1ccc(OC2CCc3ccc(OC)cc32)cc1` (stereo partly drawn) [Example 17, (3S)-3-[4-(6-Methoxy-indan-1-yloxy)-phenyl]-hex-4-ynoic acid], the EC50 fell in the range of 10 to 100 nM. The same measure for `CC#C[C@@H](CC(=O)O)c1ccc(OC2CCc3cc(OC)ccc32)cc1` (stereo partly drawn) [Example 18, (3S)-3-[4-(5-Methoxy-indan-1-yloxy)-phenyl]-hex-4-ynoic acid]: 10 to 100 nM. Take `CC#C[C@@H](CC(=O)O)c1ccc(OC2CCc3c2ccc(OC)c3OC)cc1` (stereo partly drawn) [Example 19, (3S)-3-[4-(4,5-Dimethoxy-indan-1-yloxy)-phenyl]-hex-4-ynoic acid]: the concentration giving a half-maximal response (EC50) is 1000 to 10000 nM. The same measure for `CC#C[C@@H](CC(=O)O)c1ccc(OC2CCc3c(OC)ccc(OC)c32)cc1` (stereo partly drawn) [Example 20, (3S)-3-[4-(4,7-Dimethoxy-indan-1-yloxy)-phenyl]-hex-4-ynoic acid]: 100 to 1000 nM; for `CC#C[C@@H](CC(=O)O)c1ccc(OC2CCCc3ccccc32)cc1` (stereo partly drawn) [Example 24, (3S)-3-[4-(1,2,3,4-Tetrahydro-naphthalen-1-yloxy)-phenyl]-hex-4-ynoic acid]: 10 to 100 nM. Then `CC#C[C@@H](CC(=O)O)c1ccc(OC2CCCc3c(Br)cccc32)cc1` (stereo partly drawn) [Example 25, (3S)-3-[4-(5-Bromo-1,2,3,4-tetrahydro-naphthalen-1-yloxy)-phenyl]-hex-4-ynoic acid], with 10 to 100 nM; and `CC#C[C@@H](CC(=O)O)c1ccc(OC2CCc3ccccc3C2)cc1` (stereo partly drawn) [Example 26, (3S)-3-[4-(1,2,3,4-Tetrahydro-naphthalen-2-yloxy)-phenyl]-hex-4-ynoic acid], with 100 to 1000 nM; and `CC#C[C@@H](CC(=O)O)c1ccc(OC2Cc3ccccc3C2)cc1` [Example 27, (3S)-3-[4-(Indan-2-yloxy)-phenyl]-hex-4-ynoic acid], with 10 to 100 nM. As for `CC#CC(CC(=O)O)c1ccc(OC2CCC(c3ccccc3)CC2)cc1` [Example 29, (R,S)-3-(4-(4-phenylcyclohexyloxy)phenyl)hex-4-ynoic acid], the EC50 fell in the range of 100 to 1000 nM.
